A word on the EC50: it is the concentration that produces a half-maximal response.

In the assay the test system is NL4-3 strain of HIV-1. The experiment in a line: HIV-1 replication assay: cyto-protection of MT4 cells infected with NL4-3 virus, CellTiter-Glo viability readout. The class given is cell-based. The following applies: Human immunodeficiency virus 1, NL43, 120 h; concentration leading to 50% of cyto-protection; MT4 cells infected with NL4-3 virus; 5 days incubation; CellTiter-Glo; read-out: EC50. The procedure: The antiviral activity, particularly against HIV, of compounds according to the invention is evaluated by the protocol described below.
Preparation of Virus stock of the NL4-3 strain of HIV-1 (Adachi et al, J Virol, 1986, 59(2):284-91).
The virus was prepared as described in Lopez et al (Lopez et al, Proc Natl Acad Sci USA., 2006, 103(40):14947-52, by transfecting 2×10^6 293 T cells (CRL-1573, ATCC) with following modifications: 6 μg of NL4-3 proviral DNA molecular clone were mixed with X-tremeGENE 9 DNA transfection reagent from Roche, and used according to manufacturer's instructions. Twenty four hours later, cells were washed and fresh medium added. Forty eight hours after transfection, cell supernatants were harvested, filtered through 0.45-μm-pore-size filters, quantified for HIV-1 p24 antigen by using an Innotest HIV antigen mAb assay (Ingen) according to manufacturer's instructions, and used in infection experiments.
Serial dilutions of compounds to be tested were prepared in complete RPMI medium from 10 mM DMSO stock solutions, and distributed in a volume of 20 μl in 96 well tissue-culture treated plates (Costar 3917), in order to get 0.5% DMSO final concentration in each well, after the addition of infected cells. Control wells contained also 0.5% DMSO final concentration but no compound.
MT4 cells (from the NIH AIDS Research and Reference Reagent Program) in RPMI complete medium were counted (10×10^6 cells per well in Falcon 353047 Multiwell™ 24 well) and infected for 2 hours at 37°, at a multiplicity of infection (moi) of 0.0001-0.00001. Cells were then centrifuged for 3 min at 3000 rpm, and washed two times in 1 ml PBS to remove viruses that have not entered the cells. Infected cells were resuspended in complete RPMI at 1.25×10^6 cells/ml, and 80 μl of infected cells were distributed in each well containing compounds to be tested or control wells. The plates were then incubated at 37° C. for 5 days.
Assay used to measure the inhibition of HIV replication by the compounds (according to Gregg S. Jones et al., Antimicrobial Agents and Chemotherapy, 2009, 53 (3): 1194-1203).
After 5 days of incubation, microplates were equilibrated to room temperature for 30 min and then 50 μl of CellTiter-Glo reagent (Promega Biosciences, Inc., Madison Wis., USA) were added to each well. Cell lysis was carried out at room temperature during 10 min and luminescence was read on a Fluoroskan (Thermo Scientific).
The EC50, or effective concentration 50, is the concentration of compound leading to 50% of cyto-protection in a CellTiter-Glo® viability assay based on MT4 cells infected with NL4-3 virus (table 1).
For the compound `Cc1ccc(C2(C)CC2)c(-c2ccc3c(c2)CCCO3)c1C(OC(C)(C)C)C(=O)O` (stereo not shown) [Example 25, tert-butoxy-[2-chroman-6-yl-6-methyl-3-(1-methyl-cyclopropyl)-phenyl]-acetic acid], the EC50 turned out to be 200 nM. `O=C(O)C(OC1CC1)c1c(C(F)(F)F)ccc(C2CC2)c1-c1ccc2c(c1)CCCO2` (stereo not shown) [Example 27, (2-chroman-6-yl-3-cyclopropyl-6-trifluoromethyl-phenyl)-cyclopropoxy-acetic acid]: the EC50 worked out at 280 nM. The same measure for `CCCOC(C(=O)O)c1c(C)ccc(C2CC2)c1-c1ccc2c(c1)CCCO2` (stereo not shown) [Example 28, (2-chroman-6-yl-3-cyclopropyl-6-methyl-phenyl)-propoxy-acetic acid]: 500 nM; for `Cc1ccc(C2CC2)c(-c2ccc3c(c2)CCCO3)c1C(OCC1CC1)C(=O)O` (stereo not shown) [Example 29, (2-chroman-6-yl-3-cyclopropyl-6-methyl-phenyl)-cyclopropyl methoxy-acetic acid]: 500 nM. Take `Cc1ccc(C2CC2)c(-c2ccc3c(c2)CCCO3)c1C(OCC(F)(F)F)C(=O)O` (stereo not shown) [Example 30, (2-chroman-6-yl-3-cyclopropyl-6-methyl-phenyl)-(2,2,2-trifluoro-ethoxy)-acetic acid]: the EC50 was 860 nM. The value for `CCCc1ccc(C)c(C(OC(C)C)C(=O)O)c1-c1ccc2c(c1)CCCO2` (stereo not shown) [Example 31] was 1000 nM; that for `Cc1ccc(C2CC2)c(-c2ccc3c(c2C)CCCO3)c1C(OC1CC1)C(=O)O` (stereo not shown) [Example 32, cyclopropoxy-[3-cyclopropyl-6-methyl-2-(5-methyl-chroman-6-yl)-phenyl]-acetic acid] was 32 nM; that for `Cc1ccc(C2CC2)c(-c2ccc3c(c2)CCCO3)c1C(OC1CCC1)C(=O)O` (stereo not shown) [Example 33, (2-chroman-6-yl-3-cyclopropyl-6-methyl-phenyl)-cyclobutoxy-acetic acid] was 450 nM. The same measure for `Cc1ccc(C2CC2)c(-c2ccc3c(c2)CCCO3)c1C(OCC(F)F)C(=O)O` (stereo not shown) [Example 34, (2-chroman-6-yl-3-cyclopropyl-6-methyl-phenyl)-(2,2-difluoro-ethoxy)-acetic acid]: 440 nM. The value for `Cc1ccc(C2CC2)c(-c2ccc3c(c2)CCCO3)c1C(OCCF)C(=O)O` (stereo not shown) [Example 35, (2-chroman-6-yl-3-cyclopropyl-6-methyl-phenyl)-(2-fluoro-ethoxy)-acetic acid] was 830 nM; that for `Cc1ccc(C2CC2)c(-c2ccc3c(c2)CCCO3)c1C(OC(C)C)C(=O)O` (stereo not shown) [Example 36, (2-chroman-6-yl-3-cyclopropyl-6-methyl-phenyl)-isopropoxy-acetic acid] was 100 nM. Consider `Cc1ccc(C2CC2)c(-c2cc(F)c3c(c2C)CCCO3)c1C(OC1CC1)C(=O)O` (stereo not shown) [Example 37, cyclopropoxy-[3-cyclopropyl-2-(8-fluoro-5-methyl-chroman-6-yl)-6-methyl-phenyl]-acetic acid], for which the EC50 worked out at 24 nM. The same measure for `Cc1ccc(C2CC2)c(-c2ccc3c(c2)CCCO3)c1C(OC1(C)CC1)C(=O)O` (stereo not shown) [Example 39, (2-chroman-6-yl-3-cyclopropyl-6-methyl-phenyl)-(1-methyl-cyclopropoxy)-acetic acid]: 24 nM. As to `CC(C)(C)OC(C(=O)O)c1c(-c2ccc3c(c2)CCCO3)c(C2CC2)cc2ncccc12` (stereo not shown) [Example 42, tert-butoxy-(6-chroman-6-yl-7-cyclopropyl-quinolin-5-yl)-acetic acid], the half-maximal effective concentration (EC50) amounted to 190 nM. The same measure for `Cc1ccc(C2CCC2)c(-c2ccc3c(c2)CCCO3)c1C(OC(C)(C)C)C(=O)O` (stereo not shown) [Example 43, tert-butoxy-(2-chroman-6-yl-3-cyclobutyl-6-methyl-phenyl)-acetic acid]: 94 nM. The value for `Cc1ccc(C2CC2)c(-c2ccc3c(c2)CCCO3)c1C(CC1CC1)C(=O)O` (stereo not shown) [Example 45, 3-cyclopropyl-2-[3-cyclopropyl-2-(3,4-dihydro-2H-1-benzopyran-6-yl)-6-methylphenyl]propanoic acid] was 290 nM; that for `Cc1ccc(C2CC2)c(-c2ccc3c(c2)CCCO3)c1C(CC(C)C)C(=O)O` (stereo not shown) [Example 46, 2-[3-cyclopropyl-2-(3,4-dihydro-2H-1-benzopyran-6-yl)-6-methylphenyl]-4-methylpentanoic acid] was 650 nM.

`Cc1ccc(C2CC2)c(-c2ccc3c(c2)CCCO3)c1C(OC1CC1(F)F)C(=O)O` (stereo not shown) [Example 47, (2-chroman-6-yl-3-cyclopropyl-6-methyl-phenyl)-(2,2-difluoro-cyclopropoxy)-acetic acid]: the EC50 was 450 nM. The value for `COc1cc(C)c(C(OC2CC2)C(=O)O)c(-c2ccc3c(c2)CCCO3)c1C1CC1` (stereo not shown) [Example 56, (2-chroman-6-yl-3-cyclopropyl-4-methoxy-6-methyl-phenyl)-cyclopropoxy-acetic acid] was 500 nM; that for `CCc1cc(C2CC2)c(-c2ccc3c(c2)CCCO3)c(C(OC2CC2)C(=O)O)c1C` (stereo not shown) [Example 57, 2-(2-chroman-6-yl-3-cyclopropyl-5-ethyl-6-methyl-phenyl)-2-(cyclopropoxy)acetic acid] was 580 nM.

Take `Cc1ccc(C)c(C(OC(C)(C)C)C(=O)O)c1-c1ccc2c(c1)CCCO2` (stereo not shown) [Example 62, 2-(tert-butoxy)-2-[2-(3,4-dihydro-2H-1-benzopyran-6-yl)-3,6-dimethylphenyl]acetic acid, reference compound]: the EC50 was determined as 1600 nM. The value for `CC(C)(C)OC(C(=O)O)c1c(C(F)(F)F)ccc(OCc2ccccc2)c1-c1ccc2c(c1)CCCO2` (stereo not shown) [Example 63, 2-[3-(benzyloxy)-2-(3,4-dihydro-2H-1-benzopyran-6-yl)-6-(trifluoromethyl)phenyl]-2-(tert-butoxy)acetic acid, reference compound] was 3200 nM.

(Values after patent publication US9994509B2, “Inhibitors of viral replication, their process of preparation and their therapeutical uses” (HIVIH, priority 2013, dated 2018).)
